“Also recorded” adds a separate entry of the source.
What was measured:
α9-nAChR mRNA = α9-nAChR mRNA by RT-PCR / real-time PCR in MCF-7 cells; assay type: cell-based, human; conditions: 24 h
Description: Total RNA was isolated from human cell lines using TRIzol (Invitrogen, Carlsbad, Calif., USA) according to the manufacturer's protocol. The α9-nAChR subunit-specific primers were synthesized by MB Mission BioTech (Taipei, Taiwan) as described in the previous reports (Chen, C. S., Lee, C. H., Hsieh, C. D., Ho, C. T. et al., Breast Cancer Res. Treat. 2010; Shih, Y. L., Liu, H. C., Chen, C. S., Hsu, C. H. et al., J. Agric. Food Chem. 2010, 58, 235-241). The PCR amplicons were analyzed on 1.2% agarose gels (Amresco, Solon, Ohio, USA) stained with ethidium bromide. The α9-nAChR mRNA intensity was measured and normalized to β-glucuronidase expression. Pictures of the bands were taken using an INFINITY-α digital imaging system (Vilber Lourmat, France), and band intensities were determined using PhotoCapt Version 11.01 software.

AP-1 = assay: ChIP assay of AP-1 binding to the α9-nAChR promoter in MCF-7 cells; assay type: cell-based, human; conditions: EGCG 10 μM 24 h pretreatment, Nic 10 μM
Description: Chromatin immunoprecipitation (ChIP) assays of cultured cells were performed as described previously (Chen, C. S., Lee, C. H., Hsieh, C. D., Ho, C. T. et al., Breast Cancer Res. Treat. 2010; Shih, Y. L., Liu, H. C., Chen, C. S., Hsu, C. H. et al., J. Agric. Food Chem. 2010, 58, 235-241). Briefly, after various regimens of Nic treatment, the cells were fixed with a final concentration of 1% formaldehyde directly added to the cell culture medium at 25° C. for 15 min. The crosslinking reaction was terminated with 0.125 M glycine for 5 min, and the cells were collected into a new Eppendorf tube. The cell lysate was sonicated three times with 10 s bursts to yield input DNA enriched for fragments around 1000 bp in size. A c-Jun (AP-1) antibody (Santa Cruz Biotechnology) was used for the immunoprecipitation reactions. Primers, which detect the a9-nAChR promoter regions, amplified a region from −960 to −1 for 32 cycles (forward: 5′-ATGCAATG CAAGCCTGAGCT-3′ (SEQ ID NO:2) and reverse: 5′-TATA-[…]-3′ (SEQ ID NO:3)). The PCR products were then separated and analyzed by agarose gel electrophoresis.

MCF-7 cells [1] = assay: Cell proliferation (MTT assay) in MCF-7 cells; assay type: cell-based, human
Description: Human mammary gland epithelial adenocarcinomas (MCF7, MDA-MB-231, AU-565, MDA-MB-453, and BT-483) and normal human mammary gland epithelial fibrocystic cell lines (MCF-10A and HBL-100) were purchased from ATCC (American Type Culture Collection, Manassas, Va., USA). MCF-7, MDA-MB-231, and MDA-MB-453 cells were maintained in DMEM, whereas BT-483 cells were maintained in RPMI-1640. Cell growth, proliferation, and viability were determined by the 3-(4,5-dimethylthiazol-2-yl)-2,5-diphenyltetrazolium (MTT) assay. The formazan product was measured by absorbance at 540 nm.

α9-nAChR = target: T1, α9-nAChR (Homo sapiens, UniProt Q9UGM1); assay: [^3H]-Nic equilibrium binding in MCF-7 cells
T1 construct: breast cancer cell proliferation induced by Nic could be mediated through endogenous α9-nAChR; endogenous in cells; host or cells: MCF-7 cell monolayers: wild type, scramble control (Sc) and α9-nAChR siRNA knockdown (Si) clones
Description: L-(−)-[N-methyl-^3H]-Nic ([^3[H]-Nic) (71-75 Ci/mmol) was purchased from Dupont/NEN Research Products (Boston, Mass., USA), and free-base Nic (99% pure) was purchased from The Eastman Kodak (Rochester, N.Y., USA). To study the uptake of [^3H]-Nic in MCF-7 cell monolayers (2×10^6 cells/well), cells were rinsed three times with a buffer containing 140 mM NaCl, 5.4 mM KCl, 1.8 mM CaCl2, 0.8 mM Mg504, 5 mM glucose, and 25 mM Hepes/Tris (pH 7.4). […] Nonspecific binding was determined by the addition of […] Nic. Total binding was evaluated for each concentration in quintuplicate, and blanks were determined in triplicate. The uptake of [^3H]-Nic was halted by aspiration of the uptake medium and washing of the wells three times with ice-cold buffer. The cells were lysed in 1 mL of 0.5% Triton X-100, and aliquots of the cell lysates were transferred to scintillation vials to determine the incorporated radioactivity by scintillation counting. Inhibition studies were carried out by adding various concentrations of unlabeled compounds to the uptake medium.

MCF-7 cells [2] = assay: Soft agar cloning assay (colony formation) of MCF-7 cells; assay type: cell-based, human; conditions: EGCG 10 μM, Nic 10 μM
Description: The base layer consisted of 0.9% low gelling point SeaPlaque agarose (Sigma, St. Louis, Mo., USA) in culture medium (Shih, Y. L., Liu, H. C., Chen, C. S., Hsu, C. H. et al., J. Agric. Food Chem. 2010, 58, 235-241). Soft agar, consisting of 0.4% SeaPlaque agarose in culture medium, was mixed with 1×10^4 MCF-7 cells and plated on top of the base layer in 60-mm diameter culture dishes. Soft agar cultures were maintained at 37° C. and counted for the appearance of colonies with a Leica DMI 4000B Microscope Imaging System (Leica Microsystems, Wetzlar, Germany).

T1 sequence (Q9UGM1 26-479 limits assumed): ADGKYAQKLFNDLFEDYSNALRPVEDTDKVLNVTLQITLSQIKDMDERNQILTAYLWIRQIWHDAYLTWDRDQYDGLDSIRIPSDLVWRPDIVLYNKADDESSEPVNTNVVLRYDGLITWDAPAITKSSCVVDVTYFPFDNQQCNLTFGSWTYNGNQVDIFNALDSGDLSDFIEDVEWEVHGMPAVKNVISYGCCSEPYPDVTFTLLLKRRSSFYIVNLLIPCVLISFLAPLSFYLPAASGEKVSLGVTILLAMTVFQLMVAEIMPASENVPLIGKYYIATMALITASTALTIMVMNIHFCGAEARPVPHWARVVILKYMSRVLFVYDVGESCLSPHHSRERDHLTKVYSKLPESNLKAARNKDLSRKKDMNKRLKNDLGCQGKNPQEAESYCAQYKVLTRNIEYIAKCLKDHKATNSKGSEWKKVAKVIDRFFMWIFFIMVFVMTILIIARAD

SMILES: O=C(O[C@@H]1Cc2c(O)cc(O)cc2O[C@@H]1c1cc(O)c(O)c(O)c1)c1cc(O)c(O)c(O)c1 [EGCG, (−)-epigallocatechin-3-gallate]
- α9-nAChR mRNA in Nic-treated cells (α9-nAChR mRNA; EGCG 1 μM with Nic 10 μM, RT-PCR): downregulated
- Nic- or E2-induced α9-nAChR mRNA upregulation (real-time PCR) (α9-nAChR mRNA; EGCG 10 μM, Nic 10 μM or E2 10 nM): completely attenuated
- Nic-induced AP-1 binding to the α9-nAChR promoter (AP-1): attenuated
- Nic-induced cellular proliferation effects in (C) and (Sc) cells (MCF-7 cells [1]; EGCG 10 μM, 24 h pretreatment, then Nic 10 μM 24 h): reversed
- Nic-stimulated proliferation (MCF-7 cells [1]; MCF-7, EGCG 10-25 μM, 24 h pretreatment, dose-dependent): blocked
- cell proliferation in Nic-treated α9-nAChR (Si) cells compared with Sc cells (MCF-7 cells [1]; combined treatment with EGCG 10 μM and Nic 10 μM): profoundly inhibited
- [^3H]-Nic binding activity in α9-nAChR (Si) cells compared with Sc or wild-type cells (α9-nAChR; EGCG 10 μM 24 h pretreatment): profoundly inhibited
- inhibition of [^3H]-Nic binding activity in (Si) cells compared with Sc or wild-type cells (α9-nAChR; EGCG pretreatment): > 90%
- [^3H]-Nic binding activity, EGCG pretreated then washed group (α9-nAChR; MCF-7, EGCG 24 h, wash, then [^3H]-Nic 24 h): not significantly inhibited
- [^3H]-Nic binding activity, EGCG cotreated group (α9-nAChR; MCF-7, [^3H]-Nic + EGCG cotreatment 24 h): not significantly inhibited
- relative [^3H]-Nic binding activity, EGCG pretreated group (α9-nAChR; wild-type MCF-7, EGCG 10 μM 24 h, then [^3H]-Nic cotreatment 24 h): significantly blocked; also recorded: profoundly inhibited
- colony formation in α9-nAChR (Si) cells compared with (Sc) cells (MCF-7 cells [2]): profoundly inhibited
- formation of transformed colonies compared with Nic-treated cells (MCF-7 cells [2]; MCF-7): significantly inhibits
